This is an account of results in patent publication US20220220152A1, “BIVALENT ANTAGONISTS OF INHIBITORS OF APOPTOSIS PROTEINS” (Hepagene Therapeutics (HK) Limited, priority 2019, published 2022).

The target in one experiment is T1, XIAP-BIR3 (Homo sapiens, UniProt P98170).
T1 construct: XIAP-BIR3; purchased Reaction Biology APT-11-374
The experiment in a line: XIAP-BIR3 fluorescence polarization binding assay. Particulars: FP, probe AbuRPFK-5FAM (SM5F) 5 nM, XIAP-BIR3 40 nM, 60 min at 25° C. The procedure, abridged:
(§1)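 Fluorescence polarization competition using 5-carboxyfluorescein-labelled peptide probe AbuRPFK-5FAM; protein and compound preincubated 15 min, probe added, then 60 min at 25° C.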
On the technique in general: Polarisation of emitted light reports the rotation of a fluorescent probe.

In the next experiment the target is T2, cIAP1-BIR3 (Homo sapiens, UniProt Q13490).
T2 construct: cIAP1-BIR3; purchased Reaction Biology APT-11-370
T2 sequence (Q13490 253-363 limits assumed): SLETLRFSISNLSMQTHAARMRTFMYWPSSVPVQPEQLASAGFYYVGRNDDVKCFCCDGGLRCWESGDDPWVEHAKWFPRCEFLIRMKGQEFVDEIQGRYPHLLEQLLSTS
The experiment in a line: cIAP1-BIR3 fluorescence polarization binding assay. Conditions: FP, probe AbuRPFK-5FAM (SM5F) 5 nM, cIAP1-BIR3 15 nM, 60 min at 25° C. The procedure, abridged:
as §1

A further experiment concerns the target T3, cIAP2-BIR3 (Homo sapiens, UniProt Q13489).
T3 construct: cIAP2-BIR3; purchased Reaction Biology APT-11-372
The experiment can be described thus: cIAP2-BIR3 fluorescence polarization binding assay. Particulars: FP, probe AbuRPFK-5FAM (SM5F) 5 nM, cIAP2-BIR3 80 nM, 60 min at 25° C. The procedure, abridged: as §1

T3 sequence (Q13489 238-349 limits assumed): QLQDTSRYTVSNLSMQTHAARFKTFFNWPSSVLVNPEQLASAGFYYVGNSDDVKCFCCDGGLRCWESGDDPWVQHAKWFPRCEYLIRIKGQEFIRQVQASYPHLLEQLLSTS
T1 sequence (P98170 241-356 limits assumed): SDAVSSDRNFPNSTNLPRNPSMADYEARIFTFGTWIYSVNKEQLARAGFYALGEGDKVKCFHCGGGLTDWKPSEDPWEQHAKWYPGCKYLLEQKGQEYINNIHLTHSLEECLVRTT

By IC50 is commonly meant the concentration needed to halve the response being measured. Higher therefore signals weaker potency. Take `CC[C@H](NC(=O)[C@H](C)NC)C(=O)N1CCC[C@H]1C(=O)N[C@@H]1CCCc2c(NC(=O)c3cccc4c3CCC[C@H]4NC(=O)[C@@H]3CCCN3C(=O)[C@H](CC)NC(=O)[C@H](C)NC)cccc21` [Compound VII-C, (2S)-1-[(2S)-2-[(2S)-2-(methylamino)propanamido]butanoyl]-N-[(1R)-5-[[(5R)-5-[(2S)-1-[(2S)-2-[(2S)-2-(methylamino)propanamido]butanoyl]pyrrolidine-2-amido]-5,6,7,8-tetrahydmnaphthalen-1-yl]carbamoyl]-1,2,3,4-tetrahydmnaphthalen-1-yl]pyrrolidine-2-carboxamide]: the IC50 fell in the range of 10 to 100 nM on XIAP-BIR3, 1 to 10 nM at cIAP1-BIR3 and 10 to 100 nM at cIAP2-BIR3.
Turning to `CN[C@@H](C)C(=O)N[C@H](C(=O)N1CCC[C@H]1C(=O)N[C@@H]1CCCc2c1cccc2N1CC2CN(c3cccc4c3CCC[C@H]4NC(=O)[C@@H]3CCCN3C(=O)[C@@H](NC(=O)[C@H](C)NC)C3CCCCC3)CC2C1)C1CCCCC1` (stereo partly drawn) [Compound VIII, (2S)-1-[(2S)-2-cyclohexyl-2-[(2S)-2-(methylamino)propanamido]acetyl]-N-[(1R)-5-[5-[(5R)-5-[(2S)-1-[(2S)-2-cyclohexyl-2-[(2S)-2-(methylamino)propanamido]acetyl]pyrrolidine-2-amido]-5,6,7,8-tetrahydronaphthalen-1-yl]-hexahydropyrrolo[3,4-c]pyrrol-2-yl]-1,2,3,4-tetrahydmnaphthalen-1-yl]pyrrolidine-2-carboxamide], the values for the IC50 at XIAP-BIR3, on cIAP1-BIR3 and at cIAP2-BIR3 were 10 to 100 nM, 1 to 10 nM and 1 to 10 nM, respectively.
On to `CN[C@@H](C)C(=O)N[C@H](C(=O)N1CCC[C@H]1C(=O)N[C@@H]1CCCc2c(Oc3cccc4c3CCC[C@H]4NC(=O)[C@@H]3CCCN3C(=O)[C@@H](NC(=O)[C@H](C)NC)C3CCCCC3)cccc21)C1CCCCC1` [Compound X, (2S)-1-[(2S)-2-cyclohexyl-2-[(2S)-2-(methylamino)propanamido]acetyl]-N-[(1R)-5-[[(5R)-5-[(2S)-1-[(2S)-2-cyclohexyl-2-[(2S)-2-(methylamino)propanamido]acetyl]pyrrolidine-2-amido]-5,6,7,8-tetrahydronaphthalen-1-yl]oxy]-1,2,3,4-tetrahydronaphthalen-1-yl]pyrrolidine-2-carboxamide], for which the figures for the IC50 at XIAP-BIR3, at cIAP1-BIR3 and at cIAP2-BIR3 were 10 to 100 nM, 1 to 10 nM and 10 to 100 nM, respectively.
With `CC[C@H](NC(=O)[C@H](C)NC)C(=O)N1CCC[C@H]1C(=O)N[C@@H]1CCCc2c(Oc3cccc4c3CCC[C@H]4NC(=O)[C@@H]3CCCN3C(=O)[C@H](CC)NC(=O)[C@H](C)NC)cccc21` [Compound X-A], the 50% inhibitory concentration (IC50) at XIAP-BIR3 is 10 to 100 nM; on cIAP1-BIR3, 1 to 10 nM; on cIAP2-BIR3, 10 to 100 nM.
As for `CN[C@@H](C)C(=O)N[C@H](C(=O)N1CCC[C@H]1C(=O)N[C@@H]1CCCc2c(Oc3cccc4c3CCC[C@H]4NC(=O)[C@@H]3CCCN3C(=O)[C@@H](NC(=O)[C@H](C)NC)C(C)C)cccc21)C(C)C` [Compound X-B, (S)-1-(Methyl-L-alanyl-L-valyl)-N—((R)-5-(((R)-5-((S)-1-(methyl-L-alanyl-L-valyl)pyrrolidine-2-carboxamido)-5,6,7,8-tetrahydronaphthalen-1-yl)oxy)-1,2,3,4-tetrahydronaphthalen-1-yl)pyrrolidine-2-carboxamide], the IC50 was 10 to 100 nM at XIAP-BIR3, 1 to 10 nM on cIAP1-BIR3 and 10 to 100 nM at cIAP2-BIR3.
As to `CN[C@@H](C)C(=O)N[C@H](C(=O)N1CCC[C@H]1C(=O)N[C@@H]1CCCc2c(Oc3cccc4c3CCC[C@H]4NC(=O)[C@@H]3CCCN3C(=O)[C@@H](NC(=O)[C@H](C)NC)C3CCOCC3)cccc21)C1CCOCC1` [Compound X-C, (S)-1-((S)-2-((S)-2-(methylamino)propanamido)-2-(tetrahydro-2H-pyran-4-yl)acetyl)-N—((R)-5-(((R)-5-((S)-1-((S)-2-((S)-2-(methylamino)propanamido)-2-(tetrahydro-2H-pyran-4-yl)acetyl)pyrrolidine-2-carboxamido)-5,6,7,8-tetrahydronaphthalen-1-yl)oxy)-1,2,3,4-tetrahydronaphthalen-1-yl)pyrrolidine-2-carboxamide], the half-inhibitory concentration (IC50) fell in the range of 10 to 100 nM at XIAP-BIR3, 1 to 10 nM on cIAP1-BIR3 and 10 to 100 nM on cIAP2-BIR3.
As to `CN[C@@H](C)C(=O)N[C@H](C(=O)N1CCC[C@H]1C(=O)N[C@@H]1CCCc2c(-c3cccc(-c4cccc5c4CCC[C@H]5NC(=O)[C@@H]4CCCN4C(=O)[C@@H](NC(=O)[C@H](C)NC)C4CCCCC4)c3)cccc21)C1CCCCC1` [III-A, (2S)-1-[(2S)-2-Cyclohexyl-2-[(2S)-2-(methylamino)propanamido]acetyl]-N-[(1R)-5-(3-[(5R)-5-[(2S)-1-[(2S)-2-cyclohexyl-2-[(2S)-2-(methylamino)propanamido]acetyl]pyrolidine-2-amido]-5,6,7,8-tetrahydronaphthalen-1-yl]phenyl)-1,2,3,4-tetrahydronaphthalen-1-yl]pyrrolidine-2-carboxamide], the IC50 on XIAP-BIR3 was in the range of 10 to 100 nM; at cIAP1-BIR3, 1 to 10 nM; at cIAP2-BIR3, 10 to 100 nM.
On to `CC[C@H](NC(=O)[C@H](C)NC)C(=O)N1CCC[C@H]1C(=O)N[C@@H]1CCCc2c(-c3cccc(-c4cccc5c4CCC[C@H]5NC(=O)[C@@H]4CCCN4C(=O)[C@H](CC)NC(=O)[C@H](C)NC)c3)cccc21` [III-D, (2S)-1-[(2S)-2-[(2S)-2-(methylamino)propanamido]butanoyl]-N-[(1R)-5-[3-[(5R)-5-[(2S)-1-[(2S)-2-[(2S)-2-(methylamino)propanamido]butanoyl]pyrrolidine-2-amido]-5,6,7,8-tetrahydronaphthalen-1-yl]phenyl]-1,2,3,4-tetrahydronaphthalen-1-yl]pyrrolidine-2-carboxamide], for which the IC50 at XIAP-BIR3 fell in the range of 10 to 100 nM; on cIAP1-BIR3, 1 to 10 nM; at cIAP2-BIR3, 10 to 100 nM.
Take `CC[C@H](NC(=O)[C@H](C)NC)C(=O)N1CCC[C@H]1C(=O)N[C@@H]1CCCc2c(-c3ccc(-c4cccc5c4CCC[C@H]5NC(=O)[C@@H]4CCCN4C(=O)[C@H](CC)NC(=O)[C@H](C)NC)cc3)cccc21` [III-I, (2S)-1-[(2S)-2-[(2S)-2-(methylamino)propanamido]butanoy]l-N-[(1R)-5-[4-[(5R)-5-[(2S)-1-[(2S)-2-[(2S)-2-(methylamino)propanamido]butanoyl]pyrrolidine-2-amido]-5,6,7,8-tetrahydronaphthalen-1-yl]phenyl]-1,2,3,4-tetrahydronaphthalen-1-yl]pyrrolidine-2-carboxamide]: the IC50 was 10 to 100 nM on XIAP-BIR3, 1 to 10 nM at cIAP1-BIR3 and 10 to 100 nM at cIAP2-BIR3.
For the compound `CN[C@@H](C)C(=O)N[C@H](C(=O)N1CCC[C@H]1C(=O)N[C@@H]1CCCc2c(-c3ccc(-c4cccc5c4CCC[C@H]5NC(=O)[C@@H]4CCCN4C(=O)[C@@H](NC(=O)[C@H](C)NC)C(C)C)cc3)cccc21)C(C)C` [III-N, (2S)-1-[(2S)-3-methyl-2-[(2S)-2-(methylamino)propanamido]butanoyl]-N-[(1R)-5-[4-[(5R)-5-[(2S)-1-[(2S)-3-methyl-2-[(2S)-2-(methylamino)propanamido]butanoyl]pyrolidine-2-amido]-5,6,7,8-tetrahydronaphthalen-1-yl]phenyl]-1,2,3,4-tetrahydronaphthalen-1-yl]pyrrolidine-2-carboxamide], the IC50 at XIAP-BIR3 fell in the range of 10 to 100 nM; at cIAP1-BIR3 it was 1 to 10 nM; on cIAP2-BIR3 it was 10 to 100 nM.
Take `CC[C@H](NC(=O)[C@H](C)NC)C(=O)N1CCC[C@H]1C(=O)N[C@@H]1CCCc2c(-c3cccc4c3CCC[C@H]4NC(=O)[C@@H]3CCCN3C(=O)[C@H](CC)NC(=O)[C@H](C)NC)cccc21` [V-I, (2S)-1-[(2S)-2-[(2S)-2-(methylamino)propanamido]butanoyl]-N-[1(5R,5′R)-5′-[(2S)-1-[(2S)-2-[(2S)-2-(methylamino)propanamido]butanoyl]pyrrolidine-2-amido]-5H,5′H,6H,6′H,7H,7′H,8H,8′H-[1,1′-binaphthalen]-5-yl]pyrrolidine-2-carboxamide; Bis(Formic Acid)]: the IC50 at XIAP-BIR3 lay within 10 to 100 nM; on cIAP1-BIR3, 1 to 10 nM; on cIAP2-BIR3 it was 1 to 10 nM.
`CN[C@@H](C)C(=O)N[C@H](C(=O)N1CCC[C@H]1C(=O)N[C@@H]1CCCc2c(NC(=O)c3cccc4c3CCC[C@H]4NC(=O)[C@@H]3CCCN3C(=O)[C@@H](NC(=O)[C@H](C)NC)C(C)C)cccc21)C(C)C` [VII-A, (2S)-1-[(2S)-3-methyl-2-[(2S)-2-(methylamino)propanamido]butanoyl]-N-[(1R)-5-[[(5R)-5-[(2S)-1-[(2S)-3-methyl-2-[(2S)-2-(methylamino)propanamido]butanoyl]pyrrolidine-2-amido]-5,6,7,8-tetrahydronaphthalen-1-yl]carbamoyl]-1,2,3,4-tetrahydronaphthalen-1-yl]pyrrolidine-2-carboxamide]: the figures for the concentration for half-maximal inhibition (IC50) at XIAP-BIR3, on cIAP1-BIR3 and at cIAP2-BIR3 were 10 to 100 nM, 1 to 10 nM and 1 to 10 nM, respectively.
`CN[C@@H](C)C(=O)N[C@H](C(=O)N1CCC[C@H]1C(=O)N[C@@H]1CCCc2ccc(N3CCN(c4ccc5c(c4)[C@H](NC(=O)[C@@H]4CCCN4C(=O)[C@@H](NC(=O)[C@H](C)NC)C4CCCCC4)CCC5)CC3)cc21)C1CCCCC1` [VIII-A, (2S)-1-[(2S)-2-cyclohexyl-2-[(2S)-2-(methylamino)propanamido]acetyl]-N-[(1R)-7-[4-[(8R)-8-[(2S)-1-[(2S)-2-cyclohexyl-2-[(2S)-2-(methylamino)propanamido]acetyl]pyrrolidine-2-amido]-5,6,7,8-tetrahydronaphthalen-2-yl]piperazin-1-yl]-1,2,3,4-tetrahydronaphthalen-1-yl]pyrrolidine-2-carboxamide]: the figures for the IC50 on XIAP-BIR3, at cIAP1-BIR3 and at cIAP2-BIR3 were more than 1000 nM, 10 to 100 nM and 100 to 1000 nM, respectively.
